# Data as given in patent US20040259866A1, “Calcium channel blockers comprising two benzhydril moieties” (priority 1998, published 2004).
# Like-named read-outs stand apart in the source and are kept apart here.
# Assays:
# [1] = molecular target: T1, rat α1B+α2b+β1b channels (N-type channels) (Rattus norvegicus, UniProt Q02294); assay: Block of α1B N-type channels, whole cell patch recordings (Example 6); assay type: cell-based; settings: HEK 293, 5 mM barium as charge carrier
# T1 construct: expressed in transfected cells
# T1 sequence (Q02294 whole entry): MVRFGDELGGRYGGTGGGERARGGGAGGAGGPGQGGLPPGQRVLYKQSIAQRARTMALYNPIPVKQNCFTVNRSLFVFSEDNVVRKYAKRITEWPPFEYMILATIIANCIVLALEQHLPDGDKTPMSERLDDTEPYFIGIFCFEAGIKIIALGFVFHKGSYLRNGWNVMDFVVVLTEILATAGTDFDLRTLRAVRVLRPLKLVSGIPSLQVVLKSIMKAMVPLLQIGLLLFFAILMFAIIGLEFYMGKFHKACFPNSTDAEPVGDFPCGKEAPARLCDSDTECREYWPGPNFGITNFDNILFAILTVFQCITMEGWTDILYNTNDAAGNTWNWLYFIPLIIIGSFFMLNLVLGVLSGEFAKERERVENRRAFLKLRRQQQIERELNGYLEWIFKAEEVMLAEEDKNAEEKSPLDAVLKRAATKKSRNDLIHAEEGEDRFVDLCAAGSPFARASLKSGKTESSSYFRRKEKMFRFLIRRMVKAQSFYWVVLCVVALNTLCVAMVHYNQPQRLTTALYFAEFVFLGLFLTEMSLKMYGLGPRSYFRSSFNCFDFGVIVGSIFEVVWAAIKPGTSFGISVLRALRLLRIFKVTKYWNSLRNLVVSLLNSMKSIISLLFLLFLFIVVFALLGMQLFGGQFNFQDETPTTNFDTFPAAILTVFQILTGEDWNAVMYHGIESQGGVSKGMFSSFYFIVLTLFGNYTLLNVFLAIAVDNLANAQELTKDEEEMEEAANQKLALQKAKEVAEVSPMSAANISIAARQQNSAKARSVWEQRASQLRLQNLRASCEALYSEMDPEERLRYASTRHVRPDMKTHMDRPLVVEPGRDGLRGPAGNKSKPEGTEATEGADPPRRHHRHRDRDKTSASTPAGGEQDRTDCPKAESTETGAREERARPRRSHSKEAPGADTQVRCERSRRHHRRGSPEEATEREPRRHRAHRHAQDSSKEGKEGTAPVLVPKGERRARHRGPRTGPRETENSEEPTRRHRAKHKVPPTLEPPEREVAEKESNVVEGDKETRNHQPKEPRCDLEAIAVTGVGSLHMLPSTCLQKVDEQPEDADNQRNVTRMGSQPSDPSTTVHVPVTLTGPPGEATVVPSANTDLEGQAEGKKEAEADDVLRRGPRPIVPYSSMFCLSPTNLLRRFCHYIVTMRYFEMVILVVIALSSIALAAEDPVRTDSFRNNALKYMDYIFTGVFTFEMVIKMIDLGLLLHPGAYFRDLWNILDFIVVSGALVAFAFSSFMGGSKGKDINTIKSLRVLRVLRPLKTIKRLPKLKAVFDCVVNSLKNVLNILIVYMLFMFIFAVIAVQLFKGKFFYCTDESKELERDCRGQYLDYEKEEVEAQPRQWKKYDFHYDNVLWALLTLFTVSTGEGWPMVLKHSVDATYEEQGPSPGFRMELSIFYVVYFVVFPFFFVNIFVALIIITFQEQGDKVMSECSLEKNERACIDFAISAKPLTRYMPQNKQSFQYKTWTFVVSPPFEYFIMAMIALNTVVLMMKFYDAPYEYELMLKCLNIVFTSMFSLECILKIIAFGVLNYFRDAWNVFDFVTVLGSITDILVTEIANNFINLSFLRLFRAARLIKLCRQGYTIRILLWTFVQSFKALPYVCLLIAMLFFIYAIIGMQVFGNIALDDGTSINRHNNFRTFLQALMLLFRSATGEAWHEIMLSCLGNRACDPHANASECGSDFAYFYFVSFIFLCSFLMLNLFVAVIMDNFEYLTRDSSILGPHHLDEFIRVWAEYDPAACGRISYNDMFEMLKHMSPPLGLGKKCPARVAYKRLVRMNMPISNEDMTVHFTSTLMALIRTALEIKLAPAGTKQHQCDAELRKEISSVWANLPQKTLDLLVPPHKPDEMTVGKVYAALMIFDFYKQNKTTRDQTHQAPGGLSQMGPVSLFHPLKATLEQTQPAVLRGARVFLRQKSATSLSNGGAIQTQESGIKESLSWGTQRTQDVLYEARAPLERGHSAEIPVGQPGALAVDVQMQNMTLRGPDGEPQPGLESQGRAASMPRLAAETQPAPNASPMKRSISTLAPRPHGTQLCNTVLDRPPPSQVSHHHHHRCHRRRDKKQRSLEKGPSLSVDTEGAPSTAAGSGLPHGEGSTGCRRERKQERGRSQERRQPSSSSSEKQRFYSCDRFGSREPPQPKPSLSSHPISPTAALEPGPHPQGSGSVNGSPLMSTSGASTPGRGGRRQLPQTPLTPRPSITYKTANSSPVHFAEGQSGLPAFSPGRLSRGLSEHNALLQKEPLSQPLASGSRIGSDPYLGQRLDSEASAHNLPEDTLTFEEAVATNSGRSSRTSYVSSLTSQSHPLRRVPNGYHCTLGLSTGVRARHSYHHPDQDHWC
# Description: Antagonist activity was measured using whole cell patch recordings on human embryonic kidney cells either stably or transiently expressing rat α1B+α2b+β1b channels (N-type channels) with 5 mM barium as a charge carrier.
# For transient expression, host cells, such as human embryonic kidney cells, HEK 293 (ATCC# CRL 1573) were grown in standard DMEM medium supplemented with 2 mM glutamine and 10% fetal bovine serum. HEK 293 cells were transfected by a standard calcium-phosphate-DNA coprecipitation method using the rat α1B+β1b+α2δ N-type calcium channel subunits in a vertebrate expression vector (for example, see Current Protocols in Molecular Biology).
# After an incubation period of from 24 to 72 hrs the culture medium was removed and replaced with external recording solution (see below). Whole cell patch clamp experiments were performed using an Axopatch 200B amplifier (Axon Instruments, Burlingame, Calif.) linked to an IBM compatible personal computer equipped with pCLAMP software. Borosilicate glass patch pipettes (Sutter Instrument Co., Novato, Calif.) were polished (Microforge, Narishige, Japan) to a resistance of about 4 MΩ when filled with cesium methanesulfonate internal solution (composition in MM: 109 CsCH3SO4, 4 MgCl2, 9 EGTA, 9 HEPES, pH 7.2). Cells were bathed in 5 mM Ba^++ (in mM: 5 BaCl2, 1 MgCl2, 10 HEPES, 40 tetraethylammonium chloride, 10 glucose, 87.5 CsCl pH 7.2). […] Drugs were perfused directly into the vicinity of the cells using a microperfusion system.
# Normalized dose-response curves were fit (Sigmaplot 4.0, SPSS Inc., Chicago, Ill.) by the Hill equation to determine IC50 values. Steady-state inactivation curves were plotted as the normalized test pulse amplitude following 5 s inactivating prepulses at +10 mV increments. Inactivation curves were fit (Sigmaplot 4.0) with the Boltzman equation, Ipeak (normalized)=1/(1+exp((V-Vh)z/25.6)), where V and Vh are the conditioning and half inactivation potentials, respectively, and z is the slope factor.
# Using the procedure set forth above, various compounds of the invention were tested for their ability to block N-type calcium channels.
# [2] = molecular target: T2, N-type calcium channels (α1B+α2δ+β1b cDNA subunits) (Rattus norvegicus, UniProt Q02294); assay: Selectivity patch clamp, N-type channels in HEK 293 (Example 7); assay type: cell-based; settings: Tested at 0.1 Hz, 5 mM Ba2+
# T2 construct: expressed in transfected cells
# T2 sequence (Q02294 whole entry): as above
# [3] = tested on: P/Q-type channels (α1A+α2δ+β1b cDNA subunits); assay: Selectivity patch clamp, P/Q-type channels in HEK 293 (Example 7); assay type: cell-based; settings: Tested at 0.1 Hz, 5 mM Ba2+
# [4] = tested on: L-type channels (α1C+α2δ+β1b cDNA subunits); assay: Selectivity patch clamp, L-type channels in HEK 293 (Example 7); assay type: cell-based; settings: Tested at 0.1 Hz, 5 mM Ba2+
# rat formalin model = assay: Formalin-induced pain model; assay type: in vivo; settings: 30 mg/kg IP, 10 minutes prior to formalin, saline control=100%
# Description: The effects of intrathecally delivered compounds of the invention on the rat formalin model were measured. The compounds were reconstituted to stock solutions of approximately 10 mg/ml in propylene glycol. Eight Holtsman male rats of 275-375 g size were randomly selected per test compound.
# The following study groups were used, with test compounds, vehicle control (propylene glycol) and saline delivered intraperitoneally (IP):
# Prior to initiation of drug delivery baseline behavioral and testing data were taken.
# On the morning of testing, a small metal band (0.5 g) was loosely placed around the right hind paw. The rat was placed in a cylindrical Plexiglas chamber for adaptation a minimum of 30 minutes. Test compound or vehicle control was administered 10 minutes prior to formalin injection (50 μl of 5% formalin) into the dorsal surface of the right hindpaw of the rat. The animal was then placed into the chamber of the automated formalin apparatus where movement of the formalin injected paw was monitored and the number of paw flinches tallied by minute over the next 60 minutes. (See Malmberg, A. M., and Yaksh, T. L., Anesthesiology (1993) 79:270-281.)
# Results are presented as Maximum Possible Effect±SEM, where saline control=100%.
# [5] = molecular target: T3, human α1G subunits (T-type channels) (Homo sapiens, UniProt O43497); assay: Block of α1G T-type channels, patch clamp in HEK cell lines (Example 8); assay type: cell-based
# T3 construct: expressed in transfected cells
# T3 sequence (O43497 whole entry): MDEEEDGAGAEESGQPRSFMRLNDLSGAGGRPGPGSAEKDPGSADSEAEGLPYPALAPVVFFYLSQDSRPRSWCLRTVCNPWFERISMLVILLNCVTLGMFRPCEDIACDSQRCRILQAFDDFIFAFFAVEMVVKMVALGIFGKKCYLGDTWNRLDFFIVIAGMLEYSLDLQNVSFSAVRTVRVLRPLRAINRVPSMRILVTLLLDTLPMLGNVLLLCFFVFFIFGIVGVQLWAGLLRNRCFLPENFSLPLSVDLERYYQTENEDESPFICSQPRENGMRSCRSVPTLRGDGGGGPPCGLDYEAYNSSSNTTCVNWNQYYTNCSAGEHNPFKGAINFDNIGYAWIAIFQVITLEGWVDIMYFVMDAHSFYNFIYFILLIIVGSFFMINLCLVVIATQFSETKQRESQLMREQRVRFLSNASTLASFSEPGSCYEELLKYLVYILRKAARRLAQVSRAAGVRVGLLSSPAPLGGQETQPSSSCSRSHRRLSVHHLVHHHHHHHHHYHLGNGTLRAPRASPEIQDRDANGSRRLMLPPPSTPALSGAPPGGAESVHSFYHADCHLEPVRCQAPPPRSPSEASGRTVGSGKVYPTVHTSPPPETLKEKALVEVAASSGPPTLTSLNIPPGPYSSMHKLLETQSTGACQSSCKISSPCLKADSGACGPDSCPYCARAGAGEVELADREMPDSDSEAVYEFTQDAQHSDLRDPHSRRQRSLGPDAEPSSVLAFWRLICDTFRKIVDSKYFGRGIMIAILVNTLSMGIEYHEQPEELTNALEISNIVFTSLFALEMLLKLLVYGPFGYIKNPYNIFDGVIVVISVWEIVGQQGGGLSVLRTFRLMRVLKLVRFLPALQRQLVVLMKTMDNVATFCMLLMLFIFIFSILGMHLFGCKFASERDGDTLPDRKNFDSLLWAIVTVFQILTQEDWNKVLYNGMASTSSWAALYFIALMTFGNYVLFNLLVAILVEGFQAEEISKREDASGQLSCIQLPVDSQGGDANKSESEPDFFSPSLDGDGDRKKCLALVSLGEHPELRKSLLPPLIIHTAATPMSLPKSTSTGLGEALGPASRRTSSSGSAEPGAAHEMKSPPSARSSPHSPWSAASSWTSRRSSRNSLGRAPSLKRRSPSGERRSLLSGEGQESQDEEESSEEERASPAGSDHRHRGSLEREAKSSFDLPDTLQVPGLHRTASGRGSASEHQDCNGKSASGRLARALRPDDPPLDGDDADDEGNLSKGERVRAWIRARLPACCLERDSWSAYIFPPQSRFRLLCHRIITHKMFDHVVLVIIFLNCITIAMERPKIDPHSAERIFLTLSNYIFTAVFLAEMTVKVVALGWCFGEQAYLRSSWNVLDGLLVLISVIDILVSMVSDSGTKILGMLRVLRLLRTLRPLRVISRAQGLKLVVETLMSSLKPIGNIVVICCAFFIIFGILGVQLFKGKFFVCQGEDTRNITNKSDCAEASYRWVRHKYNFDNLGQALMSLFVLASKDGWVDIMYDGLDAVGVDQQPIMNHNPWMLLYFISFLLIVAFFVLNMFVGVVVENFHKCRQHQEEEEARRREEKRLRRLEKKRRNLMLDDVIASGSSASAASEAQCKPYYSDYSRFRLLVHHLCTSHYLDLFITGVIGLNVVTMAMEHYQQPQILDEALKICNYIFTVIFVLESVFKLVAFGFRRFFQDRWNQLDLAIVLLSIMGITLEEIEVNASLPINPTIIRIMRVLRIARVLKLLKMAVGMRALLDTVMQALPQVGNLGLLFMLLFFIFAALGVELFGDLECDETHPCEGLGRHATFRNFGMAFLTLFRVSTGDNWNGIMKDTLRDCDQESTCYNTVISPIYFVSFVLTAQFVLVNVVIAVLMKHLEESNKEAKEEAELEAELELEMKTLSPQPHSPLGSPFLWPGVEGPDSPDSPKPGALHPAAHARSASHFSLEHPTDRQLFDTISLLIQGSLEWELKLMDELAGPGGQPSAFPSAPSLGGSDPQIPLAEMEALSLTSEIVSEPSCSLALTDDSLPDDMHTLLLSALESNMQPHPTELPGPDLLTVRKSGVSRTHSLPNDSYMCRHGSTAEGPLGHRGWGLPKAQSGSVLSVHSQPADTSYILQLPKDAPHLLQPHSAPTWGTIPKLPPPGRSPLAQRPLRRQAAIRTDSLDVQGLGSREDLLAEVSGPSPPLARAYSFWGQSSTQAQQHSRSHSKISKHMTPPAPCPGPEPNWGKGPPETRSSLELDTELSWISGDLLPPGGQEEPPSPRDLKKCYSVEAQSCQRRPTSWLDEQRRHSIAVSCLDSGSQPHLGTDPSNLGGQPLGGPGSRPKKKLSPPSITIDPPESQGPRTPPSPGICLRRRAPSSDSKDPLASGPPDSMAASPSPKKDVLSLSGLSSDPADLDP
# Description: Standard patch-clamp techniques were employed to identify blockers of T-type currents. Briefly, previously described HEK cell lines stably expressing human α1G subunits were used for all the recordings (passage #: 4-20, 37° C., 5% CO2). To obtain T-type currents, plastic dishes containing semi-confluent cells were positioned on the stage of a ZEISS AXIOVERT S100 microscope after replacing the culture medium with external solution (see below). Whole-cell patches were obtained using pipettes (borosilicate glass with filament, O.D.: 1.5 mm, I.D.: 0.86 mm, 10 cm length), fabricated on a SUTTER P-97 puller with resistance values of ˜5 MΩ (see below for internal medium).
# In the non-inactivating protocol, the holding potential is set at −110 mV and with a pre-pulse at −100 mV for 1 second prior to the test pulse at −40 mV for 50 ms; in the inactivation protocol, the pre-pulse is at approximately −85 mV for 1 second, which inactivates about 15% of the T-type channels, as shown below. [formula]
# Test compounds were dissolved in external solution, 0.1-0.01% DMSO. After ˜10 min rest, they were applied by gravity close to the cell using a WPI microfil tubing. The “non-inactivated” pre-pulse was used to examine the resting block of a compound. The “inactivated” protocol was employed to study voltage-dependent block, but the initial data shown below were mainly obtained using the non-inactivated protocol only. IC50 values are shown for various compounds of the invention in Table 5.
# [6] = 0.067 Hz, read-out: Block of α1B N-type Channels IC50, 0.067 Hz
# [7] = 0.2 Hz, read-out: Block of α1B N-type Channels IC50, 0.2 Hz
# [8] = 80 mV (inactivation protocol), read-out: Block of α1G T-type Channels IC50, 80 mV
# [9] = 100 mV (non-inactivating protocol), read-out: Block of α1G T-type Channels IC50, 100 mV
Structure (SMILES),"IC50 [1, 6] [nM]","IC50 [1, 7] [nM]",IC50 [2] [nM],IC50 [3] [nM],IC50 [4] [nM],"Maximum Possible Effect ± SEM, Phase I (rat formalin model) [%]","Maximum Possible Effect ± SEM, Phase II (rat formalin model) [%]","Maximum Possible Effect ± SEM, Phase IIA (rat formalin model) [%]","IC50 [5, 8] [nM]","IC50 [5, 9] [nM]"
O=C(CC(c1ccccc1)c1ccccc1)N1CCN(C(c2ccccc2)c2ccc3c(c2)OCO3)CC1 (centres unmarked) [Compound P7],213,137,101,6500,15800,56 ± 12,67 ± 6,61 ± 11,–,–
O=C(CC(c1ccccc1)c1ccccc1)N1CCN(C(c2ccccc2)c2ccccc2Cl)CC1 (centres unmarked) [Compound P35],211,92,209,7030,106000,78 ± 8,67 ± 8,52 ± 11,141,–
COc1ccc(C(c2ccc(C(F)(F)F)cc2)N2CCN(C(=O)CC(c3ccccc3)c3ccccc3)CC2)cc1 (centres unmarked) [Compound P3],291,111,185,7590,> 10000,89 ± 8,79 ± 4,85 ± 5,–,–
O=C(CC(c1ccccc1)c1ccccc1)N1CCN(C(c2ccccc2)c2cccc(Cl)c2)CC1 (centres unmarked) [Compound P36],114,44,206,930,8500,62 ± 14,60 ± 10,42 ± 9,55,–
O=C(CC(c1ccccc1)c1ccccc1)N1CCN(C(c2ccccc2)c2ccc(Cl)cc2)CC1 (centres unmarked) [Compound P6],170,120,160,4500,133000,–,–,–,–,81
O=C(CC(c1ccccc1)c1ccccc1)N1CCN(C(c2ccccc2)c2ccc(C(F)(F)F)cc2)CC1 (centres unmarked) [Compound P1],100,74,190,970,19600,–,–,–,–,–
Cc1ccc(C(c2ccccc2)N2CCN(C(=O)CC(c3ccccc3)c3ccccc3)CC2)c(C)c1 (centres unmarked) [Compound P18],324,237,217,3590,13400,73 ± 17,84 ± 12,78 ± 13,–,35
Cl.O=C(O)C1CN(C(c2ccccc2)c2ccccc2)CCN1C(=O)CC(c1ccccc1)c1ccccc1 (centres unmarked) [Compound P8],230,140,360,3400,37100,78 ± 5,70 ± 15,57 ± 18,–,–
CCOC(=O)C1CN(C(c2ccccc2)c2ccccc2)CCN1C(=O)CC(c1ccccc1)c1ccccc1 (centres unmarked) [Compound P5],160,120,73,5000,210000,–,–,–,–,–
CC(C)(C)c1cc(C(c2ccccc2)N2CCN(C(=O)CC(c3ccccc3)c3ccccc3)CC2)cc(C(C)(C)C)c1O (centres unmarked) [Compound P4],213,114,251,> 10000,> 10000,–,–,–,–,–
O=C(CC(c1ccccc1)c1ccccc1)N1CCN([C@@H](c2ccccc2)c2ccc(Cl)cc2)CC1 [Compound P47],237,138,197,1860,4370,60 ± 7,55 ± 8,54 ± 9,464,1440
O=C(CC(c1ccccc1)c1ccccc1)N1CCN(C(c2ccccc2)c2cccc(C(F)(F)F)c2)CC1 (centres unmarked) [Compound P2],200,105,113,1630,6600,57 ± 14,67 ± 10,61 ± 11,–,–
O=C(CC(c1ccccc1)c1ccccc1)N1CCN(C(c2ccccc2)c2ccc(Cl)cc2Cl)CC1 (centres unmarked) [Compound P29],–,–,385,26000,126000,78 ± 17,70 ± 10,61 ± 9,4,33
